Measurements from patent US12521415B2, “Accelerating repair of mucosal injury using gold(III) compounds” (University of Kentucky Research Foundation, priority 2020, dated 2026).
Entries after “also recorded” stand apart in the source; their conditions may differ.

Key:
[1] = test system: normal colonocytes (NCM460); experiment: Mitochondrial uptake of AuPhos by gold content (graphite furnace atomic absorption spectroscopy) in NCM460; assay type: cell-based, human; details: normal colon epithelial cells (NCM460)
Source text: (§1) FIGS. 8A-8J present properties of AuPhos. FIG. 8A includes a chemical structure of AuPhos. FIG. 8B includes extrapolated AuPhos-induced OCR (complex I) in liver mitochondria. […] FIG. 8E provides weight change in AuPhos-treated mice over time. FIG. 8F presents stability of AuPhos in PBS and DMEM. FIG. 8G presents stability of AuPhos in PBS and DMEM. FIG. 8H includes an AuPhos-induced Heat map of DEG (left Panel), obtained using log 2(Fold Change) and p-Value <0.00001 thresholds in MDA-MB-231(107) cells (n=2), and the top six hits of KEGG analysis (right panel). FIG. 8I presents biodistribution and pharmacokinetics of AuPhos in different tissues; Colon, Small bowel, Lung, Kidney, Spleen, Liver, Heart and Blood after single dose (oral, 25 mg/kg) administration of AuPhos at 6 h, 12 h and 24 h. FIG. 8J presents biodistribution and pharmacokinetics of AuPhos in different tissues stool after single dose (oral, 25 mg/kg) administration of AuPhos at 6 h, 12 h and 24 h.
(§2) FIGS. 16A-16E illustrate the pharmacokinetics and effects of AuPhos on mitochondrial bioenergetics. FIG. 16A. Biodistribution and pharmacokinetics of AuPhos in different tissues; Colon, Small bowel, Spleen, Liver after a single intragastric (i.g.) gavage (25 mg/kg) with measurements of AuPhos tissue levels (graphite furnace atomic absorption spectroscopy) at times indicated. FIG. 16B. […]

[2] = test system: breast cancer (MDA-MB-231); experiment: Mitochondrial uptake of AuPhos by gold content (graphite furnace atomic absorption spectroscopy) in MDA-MB-231; assay type: cell-based; details: cancerous epithelial cells (MDA-MB-231)
Source text: as §1
Changing the geometry and stabilizing ligands of gold compounds, such as the use of bidentate frameworks, promote different mitochondrial effects.

[3] = Biodistribution and pharmacokinetics of AuPhos in tissues and stool after single oral dose; assay type: in vivo, mouse; details: single oral 25 mg/kg dose
Source text: as §1, §2

human colonoids = experiment: AmplexRed H2O2 production in human colonoid monolayer cultures; assay type: cell-based
Method: FIG. 11A includes representative images showing AuPhos-induced (200 nM) mtROS (superoxide) production using MitoSOX Red assay.
Murine IEC will be isolated as above. Human biopsies will be incubated for 15 min at RT in CMF-HBSS/10 mM DTT with following incubation at 4° C. CMF-HBSS/8 mM EDTA for 75 min. Epithelial cells will be dislodged by vigorous shaking. Large pieces of tissue will be discarded, epithelial cells harvested by centrifugation at 40 g/5 min and imbedded in Matrigel. Both human and mouse colonoids will be grown in WRN medium (conditional medium from L-WRN cells (ATCC CRL-3276)) supplemented with 20% FBS, 500 nM A 83-01, 10 μM SB 202190, 10 μM Y27632, 2.5 μM CHIR99021, 100 μg/ml piromicin and 2.5 μg/ml amphotericin. Colonoids will be passaged every 5-7 days. NCM460 cells derived from normal human colon mucosa were purchased from INCELL Corporation, and will be cultured in M3:10 medium with 30% conditioned medium from previous culture under standard incubation conditions.
Given the in vivo data in FIG. 10, it was determined if AuPhos increases ROS levels within mitochondria (mtROS). To examine this possibility, colonic NCM460 cells were cultured, treated with a positive control (Rotenone), AuPhos (200 nM) or AuPhos with PEG-SOD (negative control) and analyzed with MitoSOX Red (an indicator of mitochondrial superoxide). […]

[4] = test system: TNF-stimulated colonic NCM460 cells; experiment: Western blot of TNF-stimulated NCM460 cells treated with AuPhos (mitochondrial biogenesis, PI3K markers); assay type: cell-based, human; details: WB
Method: FIG. 14A Normal human colonic biopsies were incubated a^t 4° C. with AuPhos×3 hrs and membrane fractions examined for mitochondrial complexes expression by WB. FIG. 14B TNF-stimulated colonic NCM460 cells were treated overnight with AuPhos at concentrations indicated. WB for markers indicated are shown in nuclear and membranous protein fractions. FIG. 14C Markers of PI3K pathway were probed in nuclear and cytosolic fractions of AuPhos-treated NCM460 cells (treated with TNF). FIG. 14D NCM460 cell were treated overnight with TNF and probed for the ROS-induced P-PTEN, which inactivates PTEN and activates PI3K.
The effects of AuPhos in Px-accelerated IL-10KO mice by beginning treatment on D21 (7D after cessation of Px) when colitis is severe is shown in FIG. 13A. AuPhos-induced mitochondrial biogenesis and PI3K signaling. To examine the effect of AuPhos on mitochondrial biogenesis in human colonic IEC, fresh biopsies were cultured with a dose range of AuPhos and examined (after 3 h) for mitochondrial complex levels. […] Lastly, TNF stimulates p-PTEN in NCM460 cells indicative of ROS-induced PTEN inactivation as published. It is likely that induction of mtROS by AuPhos enhances PI3K signaling which promotes mitochondrial biogenesis (PGC1α and TFAM) as well as cooperate with Wnt to enhance β-catenin signaling in fissioning crypts.

For [Cl][Au]1([c]2ccccc2Cc2ccccn2)[P](c2ccccc2)(c2ccccc2)c2ccccc2[P]1(c1ccccc1)c1ccccc1 [AuPhos], the “mitochondrial localization (gold content)” value [1] was “localizes in the mitochondria”, the “mitochondrial localization (gold content)” value [2] was “localizes in the mitochondria” and the “evacuation in the stool” value [3] was no more than 12 h. The tissue biodistribution [3] was “clear accumulation in the small and large bowel tissues”, the “hydrogen peroxide (H2O2) production” value (human colonoids; AuPhos 200 nM, normal and low-dose TNF-stimulated human colonoids, AmplexRed) was “increased in normal and TNF-treated cells; also recorded: Increases H2O2 production” and the “AuPhos-induced ROS (H2O2) with PEG catalase” value (human colonoids; human colonoids) was “specifically digested with PEG catalase”. For the same compound, the “markers of PI3K [pAkt and pS6 kinase (pS6)]” value ([4]; NCM460 cells treated with TNF) was “induced markers of PI3K”, the “PGC1a and TFAM protein” value ([4]; NCM460 cells, TNF-stimulated, overnight AuPhos) was “induces PGC1a and TFAM” and the “nuclear pp-catenin5” value ([4]; NCM460 cells) was “induction of nuclear pp-catenin5”.
